The nature of this data set: Distribution coefficient of carboxylic acids, water / 20% TAPO in Fragoltherm, two-phase co-culture. Type of data set: physicochemical. The following applies: water and 20% TAPO in Fragoltherm, pH 6.6, after 67 h cultivation at 37° C.

Procedure: The bacterium Clostridium kluyveri was cultivated in a co culture with Clostridium autoethanogenum for the biotransformation of ethanol and acetate to medium chain fatty acids. For the inSitu extraction of the produced acids the aqueous phase was overlayed with a mixture of Fragoltherm Q-32-N with trialkylphosphineoxide (TAPO). All cultivation steps were carried out under anaerobic conditions, the preculture in a stainless steel bubble column loop reactor and the main culture in a pressure-resistant glass bottle that can be closed airtight with a butyl rubber stopper.
The aqueous phase was then overlayed with 20 ml anaerobisized extracting agent (20% trialkylphosphineoxid (TAPO) in Fragoltherm Q-32-N). The bottle with the two-layer phases was then cultivated at 37° C., 150 rpm and with a gas atmosphere of 10% H2 and 90% N2 in an open water bath shaker for 67 h. The gas atmosphere in the bottle was flushed once a day for 10 min with pure N2.
During cultivation several 5 mL samples from both, the aqueous and the organic phase, were taken to determinate OD600 nm, pH and product formation. The determination of the product concentrations in the aqueous phase was performed by semiquantitative 1H-NMR spectroscopy and high performance liquid chromatography (HPLC) and in the organic phase by semiquantitative 1H-NMR spectroscopy and gas chromatography (GC). […]

Take `CCCCCCCC(=O)O` [octanoic acid]: the “distribution coefficient K(D)” value came to 108. With `CCCCCC(=O)O` [hexanoic acid] the figure was 4.33.
